Reference: patent publication US7767716B2, “Acyl hydrazines as kinase inhibitors, in particular for SGK” (Merck Patent GmbH, priority 2005, dated 2010)

Row | Structure (SMILES) | melting point [°C]
1 | CCc1c(C(=O)NNC(=O)Cc2cccc(O)c2)ccc(O)c1Cl [compound 84] | 259
2 | NC(=O)c1cc(C(=O)NNC(=O)Cc2cccc(O)c2)c(O)cc1O [compound 85] | 260 to 261

Second part, the compound after the results:

Row | melting point [°C] | Structure (SMILES)
3 | 258 | N#Cc1cc(C(=O)NNC(=O)Cc2cccc(O)c2)c(O)cc1O [compound 86]
4 | 240 | Cc1cc(C(=O)NNC(=O)Cc2cccc(O)c2)c(O)cc1O [compound 87]
5 | 200 to 202 | O=C(Cc1cccc(O)c1)NNC(=O)c1cc(Cl)c(O)cc1C(F)(F)F [compound 88]
